ChEMBL document CHEMBL5113459 (Bioorg Med Chem Lett, 2022)

Legend:
Assay type in all cases: functional, cell-based
DU-145 = assay: Antiproliferative activity against human AR-negative DU-145 cells assessed as cell growth inhibition incubated for 3 days by WST-1 assay; details: DU-145, 72 h
LNCaP = assay: Antiproliferative activity against human AR-positive LNCaP cells assessed as cell growth inhibition incubated for 3 days by WST-1 assay; details: 72 h
PC-3 = assay: Antiproliferative activity against human AR-negative PC-3 cells assessed as cell growth inhibition incubated for 3 days by WST-1 assay; details: PC-3, 72 h
CWR22R = assay: Antiproliferative activity against human AR-positive 22Rv1 cells assessed as cell growth inhibition incubated for 3 days by WST-1 assay; details: 22Rv1, 72 h

Compound	IC50 (DU-145) [µM]	IC50 (LNCaP) [µM]	IC50 (PC-3) [µM]	IC50 (CWR22R) [µM]
Cc1ncsc1-c1ccc(CNC(=O)[C@@H]2C[C@@H](O)CN2C(=O)[C@@H](NC(=O)COCCOCCOc2ccc(Cl)cc2C(=O)Nc2ccc([N+](=O)[O-])cc2Cl)C(C)(C)C)cc1	> 10	2.37	2.34	4.94
C#CCCOc1ccc(Cl)cc1C(=O)Nc1ccc([N+](=O)[O-])cc1Cl	> 10	> 10	> 10	> 10
O=C(O)COCCOCCOc1ccc(Cl)cc1C(=O)Nc1ccc([N+](=O)[O-])cc1Cl	> 10	> 10	> 10	> 10
CC(C)(C)OC(=O)COCCOCCN=[N+]=[N-]	> 10	> 10	> 10	> 10
CC(C)(C)OC(=O)COCCOCCn1cc(CCOc2ccc(Cl)cc2C(=O)Nc2ccc([N+](=O)[O-])cc2Cl)nn1	> 10	3.08	> 10	> 10
Cc1ncsc1-c1ccc(CNC(=O)[C@@H]2C[C@@H](O)CN2C(=O)[C@@H](NC(=O)COCCOCCn2cc(CCOc3ccc(Cl)cc3C(=O)Nc3ccc([N+](=O)[O-])cc3Cl)nn2)C(C)(C)C)cc1	> 10	1.04	2.79	6.88
O=C(O)COCCOCCn1cc(CCOc2ccc(Cl)cc2C(=O)Nc2ccc([N+](=O)[O-])cc2Cl)nn1	> 10	> 10	> 10	> 10
O=C(Nc1ccc([N+](=O)[O-])cc1Cl)c1cc(Cl)ccc1O [NICLOSAMIDE]	3.65	0.8	1.92	1.61
